“And” between values parts separate entries of the source, which are not always exact repeats. Equal values may be shown once. Read-outs that look alike come from different tables or passages of the source.
What was measured:
Test in all cases: SelectScreen kinase assay
[1] = biological target: ABL2 (Arg) (Homo sapiens, UniProt P42684); details: for Inhibition at 1 µM (%): ABL2 (Arg), ZLYTE, ATP Km app
Protocol: (§1) Selectivity profiling assays were performed by the Invitrogen SelectScreen™ Services. […] The concentration of ATP was selected to be equal to the KM, unless indicated otherwise.

[2] = biological target: T1, BMPR2 (Homo sapiens, UniProt Q13873)
T1 sequence (Q13873 27-1038): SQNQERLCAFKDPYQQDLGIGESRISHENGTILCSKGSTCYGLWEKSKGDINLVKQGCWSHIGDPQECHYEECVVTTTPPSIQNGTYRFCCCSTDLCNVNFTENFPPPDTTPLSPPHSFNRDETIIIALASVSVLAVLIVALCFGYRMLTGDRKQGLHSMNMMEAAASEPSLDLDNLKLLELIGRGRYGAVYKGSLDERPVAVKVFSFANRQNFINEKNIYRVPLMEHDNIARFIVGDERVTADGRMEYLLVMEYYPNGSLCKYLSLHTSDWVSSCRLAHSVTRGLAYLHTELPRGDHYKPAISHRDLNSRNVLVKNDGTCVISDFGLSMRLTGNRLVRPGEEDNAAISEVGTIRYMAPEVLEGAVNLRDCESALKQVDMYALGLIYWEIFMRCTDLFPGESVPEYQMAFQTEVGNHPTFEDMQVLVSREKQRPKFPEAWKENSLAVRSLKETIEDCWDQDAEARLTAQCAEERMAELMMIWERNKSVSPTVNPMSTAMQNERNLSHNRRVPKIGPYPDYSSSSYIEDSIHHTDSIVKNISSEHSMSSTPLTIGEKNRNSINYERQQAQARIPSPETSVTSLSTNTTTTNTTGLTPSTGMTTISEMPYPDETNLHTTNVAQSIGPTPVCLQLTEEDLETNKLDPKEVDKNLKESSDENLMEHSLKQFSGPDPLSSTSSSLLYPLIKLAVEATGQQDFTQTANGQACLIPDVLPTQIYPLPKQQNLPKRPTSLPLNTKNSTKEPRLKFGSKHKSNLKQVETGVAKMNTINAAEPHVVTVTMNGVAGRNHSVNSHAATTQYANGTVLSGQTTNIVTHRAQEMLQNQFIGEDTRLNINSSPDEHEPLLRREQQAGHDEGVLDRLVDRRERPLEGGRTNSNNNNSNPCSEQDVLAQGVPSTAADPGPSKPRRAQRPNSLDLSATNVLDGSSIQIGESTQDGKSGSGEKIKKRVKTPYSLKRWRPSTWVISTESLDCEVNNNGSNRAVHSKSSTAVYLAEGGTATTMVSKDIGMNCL
Protocol: as §1

[3] = biological target: CDK5/p35 (Homo sapiens, UniProt Q00535)
Sequence of CDK5/p35 (Q00535 whole entry): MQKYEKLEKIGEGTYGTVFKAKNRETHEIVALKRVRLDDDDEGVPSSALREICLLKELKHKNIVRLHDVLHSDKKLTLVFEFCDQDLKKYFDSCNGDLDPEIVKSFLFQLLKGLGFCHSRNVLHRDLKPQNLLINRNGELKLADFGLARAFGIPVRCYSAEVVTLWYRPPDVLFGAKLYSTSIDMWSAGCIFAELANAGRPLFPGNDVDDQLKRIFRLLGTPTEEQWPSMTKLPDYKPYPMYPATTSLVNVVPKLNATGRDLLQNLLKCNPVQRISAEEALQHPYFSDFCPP
Sequence of CDK5/p35 (Q15078 whole entry partner): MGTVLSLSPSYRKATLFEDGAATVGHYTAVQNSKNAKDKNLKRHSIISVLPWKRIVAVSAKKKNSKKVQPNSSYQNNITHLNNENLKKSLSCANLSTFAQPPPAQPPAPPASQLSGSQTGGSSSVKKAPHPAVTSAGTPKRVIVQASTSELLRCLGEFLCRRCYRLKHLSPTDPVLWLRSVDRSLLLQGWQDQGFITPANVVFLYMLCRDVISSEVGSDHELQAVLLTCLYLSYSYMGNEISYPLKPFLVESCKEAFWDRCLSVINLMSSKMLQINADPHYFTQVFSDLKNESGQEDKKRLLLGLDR
Protocol: as §1

[4] = biological target: CSNK1G2 (CK1 gamma 2) (Homo sapiens, UniProt P78368)
Protocol: as §1

[5] = biological target: DAPK2 (Homo sapiens, UniProt Q9UIK4); details: for Inhibition at 1 µM (%): DAPK2, LanthaScreen Binding
Sequence of DAPK2 (Q9UIK4 whole entry): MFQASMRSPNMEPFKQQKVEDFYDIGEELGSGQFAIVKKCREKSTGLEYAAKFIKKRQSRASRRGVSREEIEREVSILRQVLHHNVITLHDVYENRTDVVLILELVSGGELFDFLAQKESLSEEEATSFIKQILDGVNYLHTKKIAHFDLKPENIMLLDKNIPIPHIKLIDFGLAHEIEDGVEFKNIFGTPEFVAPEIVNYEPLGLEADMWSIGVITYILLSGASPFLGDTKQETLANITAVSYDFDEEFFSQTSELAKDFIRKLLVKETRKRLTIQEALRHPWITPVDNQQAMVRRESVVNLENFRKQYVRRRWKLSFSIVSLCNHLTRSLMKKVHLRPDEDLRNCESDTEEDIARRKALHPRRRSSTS
Protocol: as §1

[6] = biological target: LRRK2 (Homo sapiens, UniProt Q5S007)
Sequence of LRRK2 (Q5S007 970-2527 limits assumed, species assumed): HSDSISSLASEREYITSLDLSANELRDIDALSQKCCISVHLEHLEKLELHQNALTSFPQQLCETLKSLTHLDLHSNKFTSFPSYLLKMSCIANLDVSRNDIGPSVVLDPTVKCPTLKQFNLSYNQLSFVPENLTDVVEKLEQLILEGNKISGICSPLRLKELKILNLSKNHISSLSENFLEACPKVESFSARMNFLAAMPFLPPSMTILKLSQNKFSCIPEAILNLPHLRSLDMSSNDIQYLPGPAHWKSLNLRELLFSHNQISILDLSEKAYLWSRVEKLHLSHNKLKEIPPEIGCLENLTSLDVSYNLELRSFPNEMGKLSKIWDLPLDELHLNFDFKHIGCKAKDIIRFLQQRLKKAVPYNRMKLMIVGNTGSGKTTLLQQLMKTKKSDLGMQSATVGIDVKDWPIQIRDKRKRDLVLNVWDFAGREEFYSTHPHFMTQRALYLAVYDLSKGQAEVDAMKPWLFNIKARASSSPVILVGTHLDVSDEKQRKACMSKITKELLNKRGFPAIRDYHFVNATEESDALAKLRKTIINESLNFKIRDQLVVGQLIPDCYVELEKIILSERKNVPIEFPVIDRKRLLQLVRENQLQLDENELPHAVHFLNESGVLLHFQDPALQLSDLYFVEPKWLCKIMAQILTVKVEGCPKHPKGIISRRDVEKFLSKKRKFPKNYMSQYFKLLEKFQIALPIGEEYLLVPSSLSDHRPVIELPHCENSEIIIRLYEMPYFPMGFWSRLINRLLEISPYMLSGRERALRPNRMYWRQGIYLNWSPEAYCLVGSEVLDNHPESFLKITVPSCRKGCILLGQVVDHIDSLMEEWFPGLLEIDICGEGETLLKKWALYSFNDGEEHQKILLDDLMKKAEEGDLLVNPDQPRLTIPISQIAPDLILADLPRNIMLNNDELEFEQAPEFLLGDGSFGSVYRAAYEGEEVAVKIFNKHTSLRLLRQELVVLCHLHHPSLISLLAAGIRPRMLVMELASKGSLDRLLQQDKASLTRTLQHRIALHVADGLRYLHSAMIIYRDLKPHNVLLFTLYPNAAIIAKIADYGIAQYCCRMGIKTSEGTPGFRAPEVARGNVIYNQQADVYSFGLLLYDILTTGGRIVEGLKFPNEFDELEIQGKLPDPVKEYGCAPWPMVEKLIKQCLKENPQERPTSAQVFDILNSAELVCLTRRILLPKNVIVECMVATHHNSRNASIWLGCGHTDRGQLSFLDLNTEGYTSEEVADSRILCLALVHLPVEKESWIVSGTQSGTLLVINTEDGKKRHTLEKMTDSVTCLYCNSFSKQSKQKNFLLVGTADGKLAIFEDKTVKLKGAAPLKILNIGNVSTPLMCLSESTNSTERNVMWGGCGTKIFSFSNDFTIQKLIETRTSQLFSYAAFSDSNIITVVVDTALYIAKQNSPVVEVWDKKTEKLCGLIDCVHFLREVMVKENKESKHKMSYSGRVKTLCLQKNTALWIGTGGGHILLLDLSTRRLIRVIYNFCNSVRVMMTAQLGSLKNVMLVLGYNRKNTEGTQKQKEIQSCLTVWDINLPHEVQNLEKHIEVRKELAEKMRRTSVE
Protocol: as §1

[7] = biological target: LRRK2 FL (Homo sapiens, UniProt Q5S007)
Protocol: as §1

[8] = biological target: MAP2K1 (MEK1) (Homo sapiens, UniProt Q02750)
Sequence of MAP2K1 (MEK1) (Q02750 whole entry, species assumed): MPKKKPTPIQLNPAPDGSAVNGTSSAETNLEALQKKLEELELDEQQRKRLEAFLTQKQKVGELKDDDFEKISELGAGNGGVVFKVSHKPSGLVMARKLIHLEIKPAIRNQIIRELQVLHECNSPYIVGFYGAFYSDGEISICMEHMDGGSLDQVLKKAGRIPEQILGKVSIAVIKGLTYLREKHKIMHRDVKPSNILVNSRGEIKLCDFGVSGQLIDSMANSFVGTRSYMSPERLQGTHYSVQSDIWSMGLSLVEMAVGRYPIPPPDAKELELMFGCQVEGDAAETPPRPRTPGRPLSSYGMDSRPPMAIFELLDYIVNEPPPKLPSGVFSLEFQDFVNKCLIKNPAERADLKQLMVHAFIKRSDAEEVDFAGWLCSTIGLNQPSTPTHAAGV
Protocol: as §1

[9] = biological target: MAP3K2 (MEKK2) (Homo sapiens, UniProt Q9Y2U5)
Sequence of MAP3K2 (MEKK2) (Q9Y2U5 whole entry): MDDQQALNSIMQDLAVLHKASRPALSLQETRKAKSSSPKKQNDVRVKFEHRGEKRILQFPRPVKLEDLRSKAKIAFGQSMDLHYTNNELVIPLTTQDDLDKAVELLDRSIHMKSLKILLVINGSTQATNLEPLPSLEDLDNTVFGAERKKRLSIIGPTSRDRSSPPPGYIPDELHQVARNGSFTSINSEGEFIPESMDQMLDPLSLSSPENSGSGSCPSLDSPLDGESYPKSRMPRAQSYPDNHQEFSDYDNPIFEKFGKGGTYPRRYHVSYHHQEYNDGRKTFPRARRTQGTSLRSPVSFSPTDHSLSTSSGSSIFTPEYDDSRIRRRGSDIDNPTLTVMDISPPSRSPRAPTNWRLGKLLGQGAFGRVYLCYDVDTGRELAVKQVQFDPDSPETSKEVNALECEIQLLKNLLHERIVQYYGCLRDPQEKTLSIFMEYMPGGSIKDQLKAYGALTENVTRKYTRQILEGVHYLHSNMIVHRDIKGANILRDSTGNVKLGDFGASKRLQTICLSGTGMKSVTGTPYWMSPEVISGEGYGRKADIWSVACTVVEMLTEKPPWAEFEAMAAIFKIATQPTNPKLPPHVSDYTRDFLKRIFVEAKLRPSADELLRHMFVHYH
Protocol: as §1

[10] = biological target: MASTL (Homo sapiens, UniProt Q96GX5)
Sequence of MASTL (Q96GX5 whole entry): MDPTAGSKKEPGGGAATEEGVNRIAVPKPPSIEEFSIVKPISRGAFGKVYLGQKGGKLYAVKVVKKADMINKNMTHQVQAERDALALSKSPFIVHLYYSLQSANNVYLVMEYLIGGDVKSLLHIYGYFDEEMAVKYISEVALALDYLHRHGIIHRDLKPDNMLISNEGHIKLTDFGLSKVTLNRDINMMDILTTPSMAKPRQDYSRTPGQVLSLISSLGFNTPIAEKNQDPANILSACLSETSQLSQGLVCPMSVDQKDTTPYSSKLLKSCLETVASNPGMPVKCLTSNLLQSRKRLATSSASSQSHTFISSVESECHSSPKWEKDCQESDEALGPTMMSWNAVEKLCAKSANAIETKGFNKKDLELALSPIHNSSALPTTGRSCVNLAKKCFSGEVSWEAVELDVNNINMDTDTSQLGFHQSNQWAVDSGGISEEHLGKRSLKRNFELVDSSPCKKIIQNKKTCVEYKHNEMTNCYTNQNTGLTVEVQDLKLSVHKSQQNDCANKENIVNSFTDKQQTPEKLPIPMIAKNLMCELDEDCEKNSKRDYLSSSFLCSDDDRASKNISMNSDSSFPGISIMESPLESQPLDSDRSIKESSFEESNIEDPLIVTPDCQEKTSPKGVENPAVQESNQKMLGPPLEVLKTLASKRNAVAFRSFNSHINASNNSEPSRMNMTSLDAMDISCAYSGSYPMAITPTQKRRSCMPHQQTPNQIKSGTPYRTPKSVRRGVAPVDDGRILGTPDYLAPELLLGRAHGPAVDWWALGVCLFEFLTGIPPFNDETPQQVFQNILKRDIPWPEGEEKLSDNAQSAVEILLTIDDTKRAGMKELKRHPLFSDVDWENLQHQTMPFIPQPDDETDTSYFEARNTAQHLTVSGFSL
Protocol: as §1

[11] = biological target: T2, PDK1 (Homo sapiens, UniProt O15530)
T2 sequence (O15530 1-556): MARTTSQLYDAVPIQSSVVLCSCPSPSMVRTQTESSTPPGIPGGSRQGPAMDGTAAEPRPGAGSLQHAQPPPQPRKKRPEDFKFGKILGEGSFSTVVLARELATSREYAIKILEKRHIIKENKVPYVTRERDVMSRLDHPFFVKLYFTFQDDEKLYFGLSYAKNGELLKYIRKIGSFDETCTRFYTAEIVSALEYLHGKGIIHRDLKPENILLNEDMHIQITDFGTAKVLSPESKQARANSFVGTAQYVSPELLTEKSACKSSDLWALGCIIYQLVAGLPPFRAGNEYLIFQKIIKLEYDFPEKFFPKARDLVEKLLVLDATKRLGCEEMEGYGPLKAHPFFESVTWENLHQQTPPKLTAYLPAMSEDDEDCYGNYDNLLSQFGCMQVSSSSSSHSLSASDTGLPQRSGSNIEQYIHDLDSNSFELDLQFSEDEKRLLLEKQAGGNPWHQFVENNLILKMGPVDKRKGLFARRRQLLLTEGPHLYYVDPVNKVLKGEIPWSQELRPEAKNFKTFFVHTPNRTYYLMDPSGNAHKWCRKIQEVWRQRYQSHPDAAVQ
Protocol: as §1

[12] = biological target: PIP5K1A (Homo sapiens, UniProt Q99755)
Sequence of PIP5K1A (Q99755 whole entry): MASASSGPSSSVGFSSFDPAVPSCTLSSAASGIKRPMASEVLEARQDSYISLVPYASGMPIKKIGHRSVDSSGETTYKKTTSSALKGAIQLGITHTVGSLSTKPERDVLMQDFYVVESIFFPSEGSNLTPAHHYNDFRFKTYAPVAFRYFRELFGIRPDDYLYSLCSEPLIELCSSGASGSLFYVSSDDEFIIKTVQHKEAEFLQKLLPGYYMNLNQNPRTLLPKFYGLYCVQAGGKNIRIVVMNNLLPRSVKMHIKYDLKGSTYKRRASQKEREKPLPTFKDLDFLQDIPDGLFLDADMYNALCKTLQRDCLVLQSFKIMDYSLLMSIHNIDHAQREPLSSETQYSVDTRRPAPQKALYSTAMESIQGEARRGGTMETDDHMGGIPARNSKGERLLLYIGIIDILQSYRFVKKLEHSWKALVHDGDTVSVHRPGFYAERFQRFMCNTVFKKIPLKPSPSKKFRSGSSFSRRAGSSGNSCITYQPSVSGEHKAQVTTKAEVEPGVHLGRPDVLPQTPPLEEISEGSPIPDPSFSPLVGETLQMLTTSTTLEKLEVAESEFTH
Protocol: as §1

[13] = 1 h, 1 μM WEL028, 1 h preincubation
[14] = IC50 on that kinase divided by IC50 on FES^S700C

In the case of `C#CCOc1ccc(Nc2ncc(Cl)c(Nc3ccccc3NC(=O)C=C)n2)c(OC)c1` [Compound 6], the inhibition at 1 µM [1, 13] is reported as -5%, the “Inhibition at 1 µM (%)” value [1] is reported as -2% and the “Inhibition at 1 µM (%)” value ([1]; listed as WEL028, 1 µM) is reported as -9%. For the same compound, the “Inhibition (%)” value ([2]; 1 μM WEL028, 1 h preincubation) was 3%, the “Inhibition at 1 µM (%)” value ([2]; BMPR2, 1 µM, LanthaScreen Binding, listed as WEL028, 1 µM) was 2% and the inhibition at 1 µM ([2]; read-out: Inhibition at 1 µM (%), BMPR2, 1 µM, LanthaScreen Binding) was 4%. The inhibition at 1 µM [3, 13] was -4%, the “Inhibition at 1 µM (%)” value ([3]; CDK5/p35, 1 µM, ZLYTE, ATP Km app, listed as WEL028, 1 µM) was -8% and 0% and the “Inhibition (%)” value ([4]; 1 μM WEL028, 1 h preincubation) was 4%. The “Inhibition at 1 µM (%)” value ([4]; CSNK1G2 (CK1 gamma 2), 1 µM, ZLYTE, ATP Km app, listed as WEL028, 1 µM) was 7% and 1%, the inhibition at 1 µM [5, 13] was 10% and the “Inhibition at 1 µM (%)” value [5] was 14%. For the same compound, the “Inhibition at 1 µM (%)” value ([5]; listed as WEL028, 1 µM) was 6%, the IC50 [6] was 0.0501 µM and the inhibition at 1 µM ([6]; 1 h) was 94%. For the same compound, the Apparent fold selectivity [6, 14] was 12 fold, the inhibition at 1 µM ([6]; read-out: Inhibition at 1 µM (%)) was 94% and the inhibition at 1 µM [7, 13] was 97%. For the same compound, the inhibition at 10 µM ([7]; 1 h, log[inhibitor] (M) -5.00, Adapta, ATP Km app) was 100%, the inhibition at 3.311 µM ([7]; 1 h, log[inhibitor] (M) -5.48, Adapta, ATP Km app) was 100% and the inhibition at 1.122 µM ([7]; 1 h, log[inhibitor] (M) -5.95, Adapta, ATP Km app) was 100%. The inhibition at 0.3715 µM ([7]; 1 h, log[inhibitor] (M) -6.43, Adapta, ATP Km app) was 100%, the inhibition at 0.123 µM ([7]; 1 h, log[inhibitor] (M) -6.91, Adapta, ATP Km app) was 86% and the inhibition at 0.04074 µM ([7]; 1 h, log[inhibitor] (M) -7.39, Adapta, ATP Km app) was 39%. The “Inhibition at 1 µM (%)” value ([7]; LRRK2 FL, 1 µM, Adapta, ATP Km app, listed as WEL028, 1 µM) was 96%, the inhibition at 1 µM ([7]; read-out: Inhibition at 1 µM (%), LRRK2 FL, 1 µM, Adapta, ATP Km app) was 98% and the IC50 [8] was 0.251 µM. It also gave an inhibition at 10 µM ([8]; 1 h, log[inhibitor] (M) -5.00, ZLYTE, ATP 100) of 110%, an inhibition at 3.311 µM ([8]; 1 h, log[inhibitor] (M) -5.48, ZLYTE, ATP 100) of 106% and an inhibition at 1.122 µM ([8]; 1 h, log[inhibitor] (M) -5.95, ZLYTE, ATP 100) of 106%. For the same compound, the inhibition at 0.3715 µM ([8]; 1 h, log[inhibitor] (M) -6.43, ZLYTE, ATP 100) was 78%, the inhibition at 0.123 µM ([8]; 1 h, log[inhibitor] (M) -6.91, ZLYTE, ATP 100) was 44% and the inhibition at 0.04074 µM ([8]; 1 h, log[inhibitor] (M) -7.39, ZLYTE, ATP 100) was 29%. For the same compound, the inhibition at 0.0138 µM ([8]; 1 h, log[inhibitor] (M) -7.86, ZLYTE, ATP 100) was 40%, the inhibition at 0.001514 µM ([8]; 1 h, log[inhibitor] (M) -8.82, ZLYTE, ATP 100) was 19% and the inhibition at 0.0004898 µM ([8]; 1 h, log[inhibitor] (M) -9.31, ZLYTE, ATP 100) was 18%. The inhibition at 0.004571 µM ([8]; 1 h, log[inhibitor] (M) -[…], ZLYTE, ATP 100) was 27%, the Apparent fold selectivity [8, 14] was 60 fold and the “Inhibition at 1 µM (%)” value ([8]; MAP2K1 (MEK1), 1 µM, ZLYTE, ATP 100, listed as WEL028, 1 µM) was 108%. The inhibition at 1 µM ([8]; read-out: Inhibition at 1 µM (%), MAP2K1 (MEK1), 1 µM, ZLYTE, ATP 100) was 113%, the inhibition at 1 µM [9, 13] was 3% and the “Inhibition at 1 µM (%)” value ([9]; MAP3K2 (MEKK2), 1 µM, LanthaScreen Binding, listed as WEL028, 1 µM) was 6% and 1%. For the same compound, the “Inhibition (%)” value ([10]; 1 μM WEL028, 1 h preincubation) was 3%, the “Inhibition at 1 µM (%)” value ([10]; MASTL, 1 µM, LanthaScreen Binding, listed as WEL028, 1 µM) was 6% and 0% and the inhibition at 1 µM [11, 13] was 36%. For the same compound, the “Inhibition at 1 µM (%)” value ([11]; PDK1, 1 µM, ZLYTE, ATP 100, listed as WEL028, 1 µM) was 35%, the inhibition at 1 µM ([11]; read-out: Inhibition at 1 µM (%), PDK1, 1 µM, ZLYTE, ATP 100) was 36% and the inhibition at 1 µM [12, 13] was -3%. The “Inhibition at 1 µM (%)” value ([12]; PIP5K1A, 1 µM, Adapta, ATP 10, listed as WEL028, 1 µM) was 1% and -7%.

From PMC7316778 (Nature Communications, 2020)
